How the values were obtained:
[1] = system: PANK2 silenced human neuroblastoma IMR32 cells (PANK2−/−); experiment: Coenzyme A assay in PANK2 silenced cells (LC-MS quantification of free CoA); type: cell-based; conditions: compound added twice (24 h + 24 h), relative to 0.1% DMSO controls
How it was run: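 Free intracellular CoA was measured by positive-mode LC-MS/MS of 20% TFA extracts, taking 2 μl per 10^6 cells as intracellular volume. Cells were IMR32 with stable lentiviral PANK2 knockdown, dosed twice 24 h apart (48 h total, 0.1% DMSO). Output is fold increase over vehicle.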

[2] = Stability in mouse plasma; type: in vitro ADME; conditions: mouse, plasma; for t1/2, Mouse Plasma, Diastereoisomer B: 3 µM
Description: (§1) Compounds and positive control samples were dissolved in 100% DMSO at 3 mM. To investigate the stability of the test compounds in plasma, samples were made by diluting test compounds into plasma from the stock solutions to obtain a test compound concentration of 3 μM (0.1% DMSO). Before addition of a test compound, 990 μl of plasma were preincubated at 37° C. for 5 min in eppendorf. After addition of a test compound, 70 μl for each time point were transferred to a 96-deepwell plate, previously warmed at 37° C. in a DUBNOFF water bath. Each compound was tested at five time points, in duplicate (10, 20, 30, 40 and 60 min). At each time point, an aliquot of 50 μl was taken and transferred to a new 96-deepwell plate, and the reaction was stopped with 200 μl of 100% acetonitrile containing 0.1% formic acid and the appropriate internal standard. Then samples were centrifuged at 1100×g for 30 min at +4° C. and supernatants were transferred to a new 96-deepwell plate. Samples were evaporated under N2 and reconstituted in H2O/ACN 0.1% Formic Acid (98:2). Analysis was performed without a calibration curve (Acquity UPLC-Waters; SciexAPI4000). Time 0 was obtained by adding acetonitrile before addition of the test compound.

[3] = Stability in human plasma; type: in vitro ADME; conditions: 37° C.
Description: as §1

[4] = human, plasma, Diastereoisomer A (upfield shift in 31P NMR), read-out: t1/2, Human Plasma, Diastereoisomer A (converted)
[5] = human, plasma, Diastereoisomer B, read-out: t1/2, Human Plasma, Diastereoisomer B (converted)

Row | Structure (SMILES) | half-life at 3 µM [2] | half-life at 3 µM [3, 4] | t1/2, Mouse Plasma, Diastereoisomer B [2] | half-life at 3 µM [3, 5] | PANK2−/− CoA (Fold Increase): fold increase in Coenzyme A (CoA) levels relative to controls [1] | half-life at 3 µM ([3]; Diastereoisomer A (upfield shift in 31P NMR), read-out: t1/2, Human Plasma, Diastereoisomer A (converted)) | t1/2, Human Plasma, Diastereoisomer B ([3]; Diastereoisomer B, 3 μM)
1 | COC(=O)CCNC(=O)[C@@H]1OP(=O)(OCOC(=O)C2(C(N)=O)CC2)OCC1(C)C (stereo partly drawn) [Compound No. 83, (((4R)-4-((3-methoxy-3-oxopropyl)carbamoyl)-5,5-dimethyl-2-oxido-1,3,2-dioxaphosphinan-2-yl)oxy)methyl 1-carbamoylcyclopropane-1-carboxylate] | < 9.6 min | > 60 min | <9.6 min | < 9.6 min | 12.02 Fold Increase | – | –
2 | CC(C)(C)C(=O)OCO[P@@]1(=O)OCC(C)(C)[C@H](C(=O)NCCC(=O)OCC2CCC(=O)N2)O1 (stereo partly drawn) [Compound No. 2-113, (((2S,4R)-5,5-dimethyl-2-oxido-4-((3-oxo-3-((5-oxopyrrolidin-2-yl)methoxy)propyl)carbamoyl)-1,3,2-dioxaphosphinan-2-yl)oxy)methyl pivalate] | < 9.6 min | 33.6 min | – | – | 7.93 Fold Increase | – | –
3 | COC(=O)CCNC(=O)[C@@H]1OP(=O)(OCOC(=O)[C@H](CC(C)C)NC(C)=O)OCC1(C)C (stereo partly drawn) [Compound No. 73, (((4R)-4-((3-methoxy-3-oxopropyl)carbamoyl)-5,5-dimethyl-2-oxido-1,3,2-dioxaphosphinan-2-yl)oxy)methyl acetyl-L-leucinate] | < 9.6 min | < 13.8 min | <9.6 min | < 9.6 min | 6.92 Fold Increase | – | –
4 | CC(C)(C)C(=O)OCO[P@@]1(=O)OCC(C)(C)[C@H](C(=O)NCCC(=O)OC2CCN(Cc3ccccc3)C2)O1 (stereo partly drawn) [Compound No. 93, (((2S,4R)-4-((3-((1-benzylpyrrolidin-3-yl)oxy)-3-oxopropyl)carbamoyl)-5,5-dimethyl-2-oxido-1,3,2-dioxaphosphinan-2-yl)oxy)methyl pivalate] | < 9.6 min | > 60 min | – | – | 206.8 Fold Increase | – | –
5 | COC(=O)CCNC(=O)[C@@H]1OP(=O)(N[C@@H](C)C(=O)OCCN2CCOCC2)OCC1(C)C (stereo partly drawn) [compound 27, methyl 3-((4R)-5,5-dimethyl-2-(((S)-1-(2-morpholinoethoxy)-1-oxopropan-2-yl)amino)-2-oxido-1,3,2-dioxaphosphinane-4-carboxamido)propanoate] | < 9.6 min | > 60 min | – | – | 1.49 Fold Increase | – | –
6 | CC(C)(C)C(=O)OCOP1(=O)OCC(C)(C)[C@H](C(=O)NCCC(=O)OC2CCOC2)O1 (stereo partly drawn) [Compound No. 94, (((4R)-5,5-dimethyl-2-oxido-4-((3-oxo-3-((tetrahydrofuran-3-yl)oxy)propyl)carbamoyl)-1,3,2-dioxaphosphinan-2-yl)oxy)methyl pivalate] | < 9.6 min | 40.8 min | <9.6 min | < 9.6 min | 13.14 Fold Increase | – | –
7 | CN1CCCC(OC(=O)CCNC(=O)[C@@H]2OP(=O)(OCOC(=O)C(C)(C)C)OCC2(C)C)C1 (stereo partly drawn) [Compound No. 99, (((4R)-5,5-dimethyl-4-((3-((1-methylpiperidin-3-yl)oxy)-3-oxopropyl)carbamoyl)-2-oxido-1,3,2-dioxaphosphinan-2-yl)oxy)methyl pivalate] | – | 39.6 min | – | – | 10.44 Fold Increase | – | –
8 | CC(C)[C@H](N[P@]1(=O)OCC(C)(C)[C@H](C(=O)NCCC(=O)OC(C)(C)C)O1)C(=O)OCCc1ccccc1 [compound 49, phenethyl ((2S,4R)-4-((3-(tert-butoxy)-3-oxopropyl)carbamoyl)-5,5-dimethyl-2-oxido-1,3,2-dioxaphosphinan-2-yl)-L-valinate] | – | > 60 min | – | – | 1.09 Fold Increase | – | –
9 | COC(=O)CCNC(=O)[C@@H]1OP(=O)(OCOC(=O)C(C)C)OCC1(C)C (stereo partly drawn) [Compound No. 103, (((4R)-4-((3-methoxy-3-oxopropyl)carbamoyl)-5,5-dimethyl-2-oxido-1,3,2-dioxaphosphinan-2-yl)oxy)methyl isobutyrate] | – | < 9.6 min | – | < 9.6 min | 105.8 Fold Increase | – | –
10 | COC(=O)CCNC(=O)[C@@H]1OP(=O)(N[C@@H](C)C(=O)OC2CCOC2)OCC1(C)C (stereo partly drawn) [compound 34, methyl 3-((4R)-5,5-dimethyl-2-oxido-2-(((2S)-1-oxo-1-((tetrahydrofuran-3-yl)oxy)propan-2-yl)amino)-1,3,2-dioxaphosphinane-4-carboxamido)propanoate] | – | – | – | – | 1.3 Fold Increase | > 60 min | >60 min
11 | COC(=O)CCNC(=O)[C@@H]1O[P@@](=O)(N[C@@H](C)C(=O)OCCc2ccccn2)OCC1(C)C [compound 35, methyl 3-((2R,4R)-5,5-dimethyl-2-oxido-2-(((S)-1-oxo-1-(2-(pyridin-2-yl)ethoxy)propan-2-yl)amino)-1,3,2-dioxaphosphinane-4-carboxamido)propanoate] | – | > 60 min | – | 53.4 min | 2.23 Fold Increase | – | –
12 | COC(=O)CCNC(=O)[C@@H]1OP(=O)(N[C@@H](Cc2cccnc2)C(=O)OCCc2ccccc2)OCC1(C)C (stereo partly drawn) [compound 36, phenethyl (2S)-2-(((4R)-4-((3-methoxy-3-oxopropyl)carbamoyl)-5,5-dimethyl-2-oxido-1,3,2-dioxaphosphinan-2-yl)amino)-3-(pyridin-3-yl)propanoate] | – | > 60 min | – | > 60 min | 2.44 Fold Increase | – | –

Further lines, with some results ahead:

Row | half-life at 3 µM [2] | half-life at 3 µM [3, 4] | t1/2, Mouse Plasma, Diastereoisomer B [2] | half-life at 3 µM [3, 5] | Structure (SMILES) | PANK2−/− CoA (Fold Increase): fold increase in Coenzyme A (CoA) levels relative to controls [1] | half-life at 3 µM ([3]; Diastereoisomer A (upfield shift in 31P NMR), read-out: t1/2, Human Plasma, Diastereoisomer A (converted)) | t1/2, Human Plasma, Diastereoisomer B ([3]; Diastereoisomer B, 3 μM)
13 | < 9.6 min | > 60 min | – | – | COC(=O)CCNC(=O)[C@@H]1O[P@@](=O)(N[C@@H](C)C(=O)OC2Cc3ccccc3C2)OCC1(C)C [compound 43, 2,3-dihydio-1H-inden-2-yl ((2R,4R)-4-((3-methoxy-3-oxopropyl)carbamoyl)-5,5-dimethyl-2-oxido-1,3,2-dioxaphosphinan-2-yl)-L-alaninate] | 1.97 Fold Increase | – | –
14 | – | > 60 min | – | > 60 min | C[C@H](NP1(=O)OCC(C)(C)[C@H](C(=O)NCCC(=O)OCC2CC2)O1)C(=O)OCCc1ccccc1 (stereo partly drawn) [compound 37, cyclopropylmethyl 3-((4R)-5,5-dimethyl-2-oxido-2-(((S)-1-oxo-1-phenethoxypropan-2-yl)amino)-1,3,2-dioxaphosphinane-4-carboxamido)propanoate] | 1.9 Fold Increase | – | –
15 | – | > 60 min | – | – | C[C@H](NP1(=O)OCC(C)(C)[C@H](C(=O)NCCC(=O)OC[C@H]2CCC(=O)N2)O1)C(=O)OCCc1ccccc1 (stereo partly drawn) [compound 47, ((R)-5-oxopyrrolidin-2-yl)methyl 3-((4R)-5,5-dimethyl-2-oxido-2-(((S)-1-oxo-1-phenethoxypropan-2-yl)amino)-1,3,2-dioxaphosphinane-4-carboxamido)propanoate] | 1.38 Fold Increase | – | –
16 | – | > 60 min | – | – | COC(=O)CCNC(=O)[C@@H]1OP(=O)(N[C@@H](C)C(=O)OCCc2ccccc2)OCC1(C)C (stereo in doubt) [compound 48, methyl 3-((2R,4R)-5,5-dimethyl-2-oxido-2-(((S)-1-oxo-1-phenethoxypropan-2-yl)amino)-1,3,2-dioxaphosphinane-4-carboxamido)propanoate] | 2.16 Fold Increase | – | –
17 | – | 57 min | – | – | COC(=O)CCNC(=O)[C@@H]1OP(=O)(N[C@@H](C)C(=O)OCCCc2ccccc2)OCC1(C)C (stereo in doubt) [compound 46, methyl 3-((2R,4R)-5,5-dimethyl-2-oxido-2-(((S)-1-oxo-1-(3-phenylpropoxy)propan-2-yl)amino)-1,3,2-dioxaphosphinane-4-carboxamido)propanoate] | 2.74 Fold Increase | – | –
18 | – | > 60 min | – | > 60 min | C[C@H](NP1(=O)OCC(C)(C)[C@H](C(=O)NCCC(=O)OCc2ccncc2)O1)C(=O)OCCc1ccccc1 (stereo partly drawn) [compound 38, phenethyl ((4R)-5,5-dimethyl-2-oxido-4-((3-oxo-3-(pyridin-4-ylmethoxy)propyl)carbamoyl)-1,3,2-dioxaphosphinan-2-yl)-L-alaninate] | 2.76 Fold Increase | – | –

Reference: US10364263B2, “Cyclic phosphates and cyclic phosphoramidates for the treatment of neurologic disorders” (Retrophin, Inc., priority 2015, dated 2019)
